The values below come from article PMC2693028 (ChemMedChem, 2008).

Series [1] relates to Pseudomonas aeruginosa (ATCC strain 27853). In words: microbe, parasite or virus in culture. Conditions: ATCC27853. In kind it is cell-based.
For series [2], the system named is MHS. Kind of series: cells. In kind it is cell-based. Conditions: read-out: EC50 against MHS.
The subject of series [3] is vancomycin–resistant Enterococcus (VRE) (ATCC strain 51299). In words: microbe, parasite or virus in culture. In kind it is cell-based.
The test system of series [4] is Sterne strain B. anthracis. Kind of series: microbe, parasite or virus in culture. In kind it is cell-based, Bacillus anthracis.
The subject of series [5] is methicillin–resistant Staphylococcus aureus (ATCC strain 43300). In words: microbe, parasite or virus in culture. In kind it is cell-based.
In series [6] the test system is Staphylococcus aureus (ATCC strain 29213). Kind of series: microbe, parasite or virus in culture. As to conditions: ATCC29213|MSSA. It counts as cell-based.
For series [7], the system named is Klebsiella pneumoniae (ATCC strain 700603). In words: microbe, parasite or virus in culture. It counts as cell-based.
Series [8] relates to Enterococcus fecalis (ATCC strain 29212). In words: microbe, parasite or virus in culture. It counts as cell-based.
In series [9] the test system is HeLa cells. Kind of series: cells. Conditions: Homo sapiens, read-out: EC50 against HeLa cells.
Series [10] relates to Escherchia coli (ATCC strain 25922). In words: microbe, parasite or virus in culture. In kind it is cell-based.
In series [11] the test system is ΔANR B. anthracis. Kind of series: microbe, parasite or virus in culture. It counts as cell-based, Bacillus anthracis.
Series [12] concerns the target Enoyl reducase (ENR) from Bacillus anthracis (BaENR) (Bacillus anthracis, UniProt A0A6L8PBX8). Kind of series: biochemical. Conditions: IC50.
In series [13] the test system is Listeria monocytogenes (10403S). In words: microbe, parasite or virus in culture. It counts as cell-based.
Series [14] deals with HeLa cells. As to conditions: human.
The test system of series [15] is PfENR. As to conditions: cited from earlier work.
For series [16], the system named is ENR in E. coli. Conditions: cited from earlier work.
In series [17] the test system is ENR in S. aurues. Conditions: cited from earlier work.
The test system of series [18] is ΔANR B. anthracis. Conditions: cited from earlier work.
Setting [19] is: Staphylococcus aureus, ATCC43300|MRSA.
The mark [20] stands for this setting: Klebsiella pneumoniae, ATCC700603.

Structures are written as SMILES. Converted amounts (≈) assume the structure as drawn. Like-named read-outs stand apart in the source and are kept apart here. A value given as a limit tells only on which side of the number the result lay.

Sequence of Enoyl reducase (ENR) from Bacillus anthracis (BaENR) (A0A6L8PBX8 1-256): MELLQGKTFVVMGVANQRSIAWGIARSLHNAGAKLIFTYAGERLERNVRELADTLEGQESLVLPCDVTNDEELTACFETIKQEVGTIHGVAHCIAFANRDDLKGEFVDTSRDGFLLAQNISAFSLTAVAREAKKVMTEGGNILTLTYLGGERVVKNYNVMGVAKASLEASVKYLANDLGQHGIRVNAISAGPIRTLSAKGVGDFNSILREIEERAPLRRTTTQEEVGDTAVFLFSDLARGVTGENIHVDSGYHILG

Turning to `CCCc1ccc(Oc2ccc([N+](=O)[O-])cc2Cl)c(O)c1` [Compound 11, 2-(2-Chloro-4-nitrophenoxy)-5-propylphenol], the MIC was > 25 µg/mL in [1]; 5.7 ± 0.3 µg/mL (≈ 18.5 µM) in series [3] (Enterococcus, ATCC51299|VRE); 1.9 µg/mL (≈ 6.17 µM) in [4] (Bacillus anthracis); 0.3 ± 0.3 µg/mL (≈ 0.975 µM) in series [5]; 0.3 µg/mL (≈ 0.975 µM) in series [5] (setting [19]); 0.1 ± 0.1 µg/mL (≈ 0.325 µM) in [6]. Also, the MIC is 1.8 ± 0.9 µg/mL (≈ 5.85 µM) in series [7] (setting [20]); 4.4 ± 0.5 µg/mL (≈ 14.3 µM) in [8] (Enterococcus, ATCC29212); 0.3 ± 0.2 µg/mL (≈ 0.975 µM) in series [10] (Escherichia coli, ATCC25922); 2.2 ± 0.0 µg/mL (≈ 7.15 µM) in series [11]; 1.9 to 3.1 µg/mL (≈ 6.17 to 10.1 µM) in series [11] (Bacillus anthracis); 2.8 ± 0.9 µg/mL (≈ 9.1 µM) in series [13] (Listeria monocytogenes). The concentration for a half-maximal effect (EC50) (as a rule, the concentration giving half of the maximal effect) in series [2] was determined as 22.6 µg/mL (≈ 73.4 µM); in series [9] it was 41.4 µg/mL (≈ 135 µM). The MBC/MIC in [3] is listed as 2.7; in series [4] it was 2.1; in series [5], 1.9; in [7], 4.7; in [8], 2.9; in series [10], 4.5. In addition, the MBC/MIC in [11] was 1.8; in series [13], 5.0. The MBC was found to be 15.6 ± 3.1 µg/mL (≈ 50.7 µM) in series [3] (Enterococcus, ATCC51299|VRE); 3.9 ± 0.8 µg/mL (≈ 12.7 µM) in series [4] (Bacillus anthracis); 0.5 ± 0.2 µg/mL (≈ 1.62 µM) in series [5] (setting [19]); 2.9 ± 1.2 µg/mL (≈ 9.42 µM) in series [6]; 8.3 ± 2.1 µg/mL (≈ 27 µM) in [7] (setting [20]); 12.5 µg/mL (≈ 40.6 µM) in [8] (Enterococcus, ATCC29212). In addition, the MBC in [10] (Escherichia coli, ATCC25922) was found to be 1.2 ± 0.4 µg/mL (≈ 3.9 µM); in [11] (Bacillus anthracis) it was 3.9 ± 0.8 µg/mL (≈ 12.7 µM); in [13] (Listeria monocytogenes), 14.1 ± 3.9 µg/mL (≈ 45.8 µM). For the same compound, it took 500 nM to reach half-maximal inhibition in series [12] (IC50). Further, in [14], the EC50/MIC ratio was 15–20.

`Oc1cc(Cl)ccc1Oc1ccc(Cl)cc1Cl` [Triclosan]: the half-inhibitory concentration (IC50) – broadly, the concentration needed to halve the response being measured – in series [15] is 73 nM; in series [16], 7250 nM; in series [17], 70 nM. The MIC in series [11] (Bacillus anthracis) and in series [18] was 3.1 µg/mL (≈ 10.7 µM) in each case.
